# Experimental data reported in PubChem BioAssay AID328 (DTP/NCI, 2004).
# Values joined by “and” are separate entries in the source; they are usually repeats but may differ in a detail not shown here. Equal values may be shown once. Inconclusive results and toxic doses are left out.
# Test system: BDF1 mice, P388 leukemia ip, median survival T/C
# Test: NCI In Vivo Anticancer Drug Screen. Data for tumor model P388 Leukemia (intraperitoneal) in B6D2F1 (BDF1) mice
# Conditions: endpoint: median survival time, higher = longer survival
# In short: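 Antitumour effect was judged in vivo: survival in drug-treated mice, normalised to that of vehicle-dosed controls, gives the reported T/C.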
# [1] = dose: 100.0 mg/kg/injection, schedule: Q01DX009 (ip), vehicle: saline with Tween-80
# [2] = dose: 100.0 mg/kg/injection, schedule: Q04DX003 (ip), vehicle: saline with Tween-80
# [3] = dose: 200.0 mg/kg/injection, schedule: Q01DX009 (ip), vehicle: saline with Tween-80
# [4] = dose: 50.0 mg/kg/injection, schedule: Q01DX009 (ip), vehicle: saline with Tween-80
smiles,measurement,setting,value
Cc1cc2c(c3oc(C4(C)OC4C4OC4C)cc(=O)c13)C(=O)c1c(O)c(C3CC(C)(N(C)C)C(O)C(C)O3)cc(C3CC(N(C)C)C(O)C(C)O3)c1C2=O (stereo unspecified),T/C,"dose: 0.01 mg/kg/injection, schedule: Q01DX009 (oral), vehicle: saline",105 % of control
same,T/C,"dose: 0.03 mg/kg/injection, schedule: Q01DX009 (oral), vehicle: saline",105 % of control
same,T/C,"dose: 0.06 mg/kg/injection, schedule: Q01DX001 (oral), vehicle: saline",95 % of control
same,T/C,"dose: 0.06 mg/kg/injection, schedule: Q01DX009 (oral), vehicle: saline",110 % of control
same,T/C,"dose: 0.06 mg/kg/injection, schedule: Q01DX010 (ip), vehicle: saline",109 % of control
same,T/C,"dose: 0.12 mg/kg/injection, schedule: Q01DX001 (ip), vehicle: saline",155 % of control
same,T/C,"dose: 0.12 mg/kg/injection, schedule: Q01DX001 (oral), vehicle: saline",104 % of control
same,T/C,"dose: 0.12 mg/kg/injection, schedule: Q01DX009 (oral), vehicle: saline",110 % of control
same,T/C,"dose: 0.24 mg/kg/injection, schedule: Q01DX001 (ip), vehicle: saline",190 % of control
same,T/C,"dose: 0.24 mg/kg/injection, schedule: Q01DX001 (oral), vehicle: saline",104 % of control
same,T/C,"dose: 0.48 mg/kg/injection, schedule: Q01DX001 (ip), vehicle: saline",200 % of control
same,T/C,"dose: 0.48 mg/kg/injection, schedule: Q01DX001 (oral), vehicle: saline",100 % of control
same,T/C,"dose: 0.1 micrograms/kg/injection, schedule: Q01DX010 (ip), vehicle: carboxymethylcellulose (CMC)",95 % of control
same,T/C,"dose: 0.1 micrograms/kg/injection, schedule: Q01DX010 (ip), vehicle: other",113 % of control
same,T/C,"dose: 0.2 micrograms/kg/injection, schedule: Q01DX010 (ip), vehicle: carboxymethylcellulose (CMC)",95 % of control
same,T/C,"dose: 0.2 micrograms/kg/injection, schedule: Q01DX010 (ip), vehicle: other",118 % of control
same,T/C,"dose: 0.3 micrograms/kg/injection, schedule: Q01DX010 (ip), vehicle: saline",100 % of control
same,T/C,"dose: 0.3 micrograms/kg/injection, schedule: Q01DX010 (ip), vehicle: steriod suspending solution",95 % of control
same,T/C,"dose: 0.5 micrograms/kg/injection, schedule: Q01DX010 (ip), vehicle: carboxymethylcellulose (CMC)",104 % of control
same,T/C,"dose: 0.5 micrograms/kg/injection, schedule: Q01DX010 (ip), vehicle: other",109 % of control
same,T/C,"dose: 0.5 micrograms/kg/injection, schedule: Q01DX010 (ip), vehicle: saline",116 % of control
same,T/C,"dose: 0.6 micrograms/kg/injection, schedule: Q01DX010 (ip), vehicle: saline",95 % of control
same,T/C,"dose: 0.6 micrograms/kg/injection, schedule: Q01DX010 (ip), vehicle: steriod suspending solution",120 % of control
same,T/C,"dose: 1.0 micrograms/kg/injection, schedule: Q01DX010 (ip), vehicle: other",109 % of control
same,T/C,"dose: 1.0 micrograms/kg/injection, schedule: Q01DX010 (ip), vehicle: saline",120 % of control
same,T/C,"dose: 1.3 micrograms/kg/injection, schedule: Q01DX010 (ip), vehicle: saline",122 % of control
same,T/C,"dose: 2.0 micrograms/kg/injection, schedule: Q01DX010 (ip), vehicle: other",113 % of control
same,T/C,"dose: 4.0 micrograms/kg/injection, schedule: Q01DX010 (ip), vehicle: carboxymethylcellulose (CMC)",118 % of control
same,T/C,"dose: 4.0 micrograms/kg/injection, schedule: Q01DX010 (ip), vehicle: saline",159 % of control
same,T/C,"dose: 5.0 micrograms/kg/injection, schedule: Q01DX010 (ip), vehicle: carboxymethylcellulose (CMC)",175 % of control
same,T/C,"dose: 5.0 micrograms/kg/injection, schedule: Q01DX010 (ip), vehicle: steriod suspending solution",150 % of control
same,T/C,"dose: 6.0 micrograms/kg/injection, schedule: Q01DX009 (ip), vehicle: saline",155 % of control
same,T/C,"dose: 8.0 micrograms/kg/injection, schedule: Q01DX010 (ip), vehicle: saline",163 % of control
same,T/C,"dose: 10.0 micrograms/kg/injection, schedule: Q01DX010 (ip), vehicle: carboxymethylcellulose (CMC)",190 % of control
same,T/C,"dose: 10.0 micrograms/kg/injection, schedule: Q01DX010 (ip), vehicle: steriod suspending solution",160 % of control
same,T/C,"dose: 12.0 micrograms/kg/injection, schedule: Q01DX009 (ip), vehicle: saline",170 % of control
same,T/C,"dose: 16.0 micrograms/kg/injection, schedule: Q01DX010 (ip), vehicle: saline",118 % of control
same,T/C,"dose: 20.0 micrograms/kg/injection, schedule: Q01DX010 (ip), vehicle: saline",154 % of control
same,T/C,"dose: 20.0 micrograms/kg/injection, schedule: Q01DX010 (ip), vehicle: steriod suspending solution",180 % of control
same,T/C,"dose: 30.0 micrograms/kg/injection, schedule: Q01DX010 (ip), vehicle: saline",109 % of control
same,T/C,"dose: 32.0 micrograms/kg/injection, schedule: Q01DX010 (ip), vehicle: other",177 % of control
same,T/C,"dose: 60.0 micrograms/kg/injection, schedule: Q01DX010 (ip), vehicle: saline",86 % of control
Cc1ccc2c(/C=C/c3ccc(N(C)C)cc3)ccnc2c1C,T/C,[1],120 % of control
NC(=S)c1cncnc1N,T/C,[2],91 % of control
Cc1ccccc1OCCCCCl,T/C,[1],115 % of control
same,T/C,[3],107 % of control
same,T/C,"dose: 400.0 mg/kg/injection, schedule: Q01DX009 (ip), vehicle: saline with Tween-80",115 % of control
CC(=O)NNC(=O)c1ccncc1,T/C,"dose: 100.0 mg/kg/injection, schedule: Q04DX003 (ip), vehicle: saline",100 % of control
same,T/C,"dose: 200.0 mg/kg/injection, schedule: Q04DX003 (ip), vehicle: saline",118 % of control
same,T/C,"dose: 400.0 mg/kg/injection, schedule: Q04DX003 (ip), vehicle: saline",100 % of control
COc1cc2c[n+](C)c3c4cc5c(cc4ccc3c2cc1OC)OCO5 (tested in a mixture with another compound),T/C,"dose: 1.25 mg/kg/injection, schedule: Q01DX009 (ip), vehicle: water",124 % of control
same,T/C,"dose: 10.0 mg/kg/injection, schedule: Q01DX009 (ip), vehicle: saline",163 % of control and 166 % of control
same,T/C,"dose: 10.0 mg/kg/injection, schedule: Q01DX009 (ip), vehicle: water",160 % of control
same,T/C,"dose: 20.0 mg/kg/injection, schedule: Q01DX009 (ip), vehicle: saline",172 % of control and 188 % of control and 203 % of control
same,T/C,"dose: 20.0 mg/kg/injection, schedule: Q01DX009 (ip), vehicle: water",150 % of control
same,T/C,"dose: 40.0 mg/kg/injection, schedule: Q01DX009 (ip), vehicle: saline",174 % of control and 215 % of control
same,T/C,"dose: 40.0 mg/kg/injection, schedule: Q01DX009 (ip), vehicle: water",110 % of control
same,T/C,"dose: 80.0 mg/kg/injection, schedule: Q01DX009 (ip), vehicle: saline",172 % of control and 188 % of control
CCCNC(=O)Nc1ccc(C)c(Cl)c1,T/C,[2],104 % of control
same,T/C,"dose: 200.0 mg/kg/injection, schedule: Q04DX003 (ip), vehicle: saline with Tween-80",100 % of control
same,T/C,"dose: 400.0 mg/kg/injection, schedule: Q04DX003 (ip), vehicle: saline with Tween-80",95 % of control
Oc1cc(Cl)c(Cl)c(Cl)c1,T/C,"dose: 100.0 mg/kg/injection, schedule: Q04DX002 (ip), vehicle: saline with Tween-80",102 % of control
same,T/C,"dose: 200.0 mg/kg/injection, schedule: Q04DX002 (ip), vehicle: saline with Tween-80",98 % of control
same,T/C,"dose: 400.0 mg/kg/injection, schedule: Q04DX002 (ip), vehicle: saline with Tween-80",97 % of control
CCCCCCCCOB(OCCCCCCCC)OCCCCCCCC,T/C,"dose: 25.0 mg/kg/injection, schedule: Q04DX003 (ip), vehicle: saline with Tween-80",91 % of control
same,T/C,"dose: 50.0 mg/kg/injection, schedule: Q04DX003 (ip), vehicle: saline with Tween-80",100 % of control
same,T/C,[2],91 % of control and 100 % of control
CCCCC(CC)(CC(=O)O)CC(=O)O,T/C,"dose: 40.0 mg/kg/injection, schedule: Q01DX010 (ip), vehicle: water",118 % of control
CCCCCCCCC(=O)Nc1ncnc2n[nH]nc12,T/C,"dose: 6.25 mg/kg/injection, schedule: Q01DX009 (ip), vehicle: saline with Tween-80",87 % of control
same,T/C,"dose: 12.5 mg/kg/injection, schedule: Q01DX009 (ip), vehicle: saline with Tween-80",90 % of control
same,T/C,"dose: 25.0 mg/kg/injection, schedule: Q01DX009 (ip), vehicle: saline with Tween-80",102 % of control
same,T/C,[4],109 % of control
O=[N+]([O-])c1ccc(N2CC2)c2c1no[n+]2[O-],T/C,"dose: 15.0 mg/kg/injection, schedule: Q04DX003 (ip), vehicle: saline with Tween-80",109 % of control
COc1cccc2c1C(=O)c1c(O)c3c(c(O)c1C2=O)CC(O)(/C(C)=N/NC(=O)CC(=O)N/N=C(\C)C1(O)Cc2c(O)c4c(c(O)c2C(OC2CC(N)C(O)C(C)O2)C1)C(=O)c1c(OC)cccc1C4=O)CC3OC1CC(N)C(O)C(C)O1 (stereo unspecified),T/C,"dose: 3.13 mg/kg/injection, schedule: Q01DX009 (ip), vehicle: water",157 % of control
same,T/C,"dose: 6.25 mg/kg/injection, schedule: Q01DX009 (ip), vehicle: water",186 % of control
Cc1cc(N(C)C)c2ccc3ccccc3c2n1,T/C,[4],93 % of control
same,T/C,[1],95 % of control
same,T/C,[3],101 % of control
COC(=O)C(C#N)=N/C=C/C=C1/N(C)c2ccccc2C1(C)C,T/C,[4],96 % of control
same,T/C,[1],92 % of control
same,T/C,[3],99 % of control
